Tested on: PDE4
Assay: PDE4 inhibition, scintillation proximity assay (SPA);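 further: A below 100 nM B 100 to below 1000 nM C 1000 nM or more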
Format: biochemical
Settings: scintillation proximity assay (SPA); evaluated as classes A, B, C; read-out: PDE4 Inhibitory Activity (concentration for the inhibition rate of 50%)
In short: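 Compound pre-diluted 1:10 in 50 mM Tris-HCl pH 7.4, 8.3 mM MgCl2, 1.7 mM EGTA, 3 mg/mL BSA, then incubated with PDE4 and [2,8-3H]-cAMP for 120 min at room temperature. Product captured on ZnSO4-containing YSi-SPA beads for 15 min; radioactivity counted against no-enzyme blank and DMSO control.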

Compound	IC50 [nM]
O=C(c1ccc(-c2nccs2)c2oc(N3CC4CCC(C3)N4)nc12)N1CCOCC1 [Example 116, (2-(3,8-Diazabicyclo[3.2.1]octan-3-yl)-7-(thiazol-2-yl)benzo[d]oxazol-4-yl)(morpholino)methanone]	< 100
O=C(c1ccc(-c2nccs2)c2oc(N3CC4CCC(C3)N4)nc12)N1CCCCC1 [Example 117, (2-(3,8-Diazabicyclo[3.2.1]octan-3-yl)-7-(thiazol-2-yl)benzo[d]oxazol-4-yl)(piperidin-1-yl)methanone]	< 100
OC(c1ccc(-c2nccs2)c2oc(N3CC4CCC(C3)N4)nc12)C(F)(F)F (centres unmarked) [Example 118, 1-(2-(3,8-Diazabicyclo[3.2.1]octan-3-yl)-7-(thiazol-2-yl)benzo[d]oxazol-4-yl)-2,2,2-trifluoroethan-1-ol]	< 100
OC(c1ccc(-c2nccs2)c2oc(N3CC4CCC(C3)N4)nc12)C(F)(F)F (centres unmarked) [Example 119, 1-(2-(3,8-Diazabicyclo[3.2.1]octan-3-yl)-7-(thiazol-2-yl)benzo[d]oxazol-4-yl)-2,2,2-trifluoroethan-1-ol]	< 100
OC(c1ccc(-c2nccs2)c2oc(N3CC4CC(C3)N4)nc12)C(F)(F)F (centres unmarked) [Example 120, 1-(2-(3,6-Diazabicyclo[3.1.1]heptan-3-yl)-7-(thiazol-2-yl)benzo[d]oxazol-4-yl)-2,2,2-trifluoroethan-1-ol]	< 100
OC(c1ccc(-c2nccs2)c2oc(N3CC4CC(C3)N4)nc12)C(F)(F)F (centres unmarked) [Example 121, 1-(2-(3,6-Diazabicyclo[3.1.1]heptan-3-yl)-7-(thiazol-2-yl)benzo[d]oxazol-4-yl)-2,2,2-trifluoroethan-1-ol]	< 100
COC(c1ccc(-c2nccs2)c2oc(N3CC4CC(C3)N4)nc12)C(F)(F)F (centres unmarked) [Example 122, 2-(3,6-Diazabicyclo[3.1.1]heptan-3-yl)-7-(thiazol-2-yl)-4-(2,2,2-trifluoro-1-methoxyethyl)benzo[d]oxazole]	< 100
COC(c1ccc(-c2nccs2)c2oc(N3CC4CC(C3)N4)nc12)C(F)(F)F (centres unmarked) [Example 123, 2-(3,6-Diazabicyclo[3.1.1]heptan-3-yl)-7-(thiazol-2-yl)-4-(2,2,2-trifluoro-1-methoxyethyl)benzo[d]oxazole]	< 100
CC(O)c1ccc(-c2nccs2)c2oc(N3CC4CCC(C3)N4)nc12 (centres unmarked) [Example 124, 1-(2-(3,8-Diazabicyclo[3.2.1]octan-3-yl)-7-(thiazol-2-yl)benzo[d]oxazol-4-yl)ethan-1-ol]	< 100
OC(c1ccc(-c2nccs2)c2oc(N3CC4CC(C3)N4)nc12)C(F)F (centres unmarked) [Example 125, 1-(2-(3,6-Diazabicyclo[3.1.1]heptan-3-yl)-7-(thiazol-2-yl)benzo[d]oxazol-4-yl)-2,2-difluoroethan-1-ol]	< 100
CC(O)(c1ccc(-c2nccs2)c2oc(N3CC4CC(C3)N4)nc12)C(F)F (centres unmarked) [Example 126, 2-(2-(3,6-Diazabicyclo[3.1.1]heptan-3-yl)-7-(thiazol-2-yl)benzo[d]oxazol-4-yl)-1,1-difluoropropan-2-ol]	< 100
CC(C)(O)COC(c1ccc(-c2nccs2)c2oc(N3CC4CC(C3)N4)nc12)C(F)F (centres unmarked) [Example 127, 1-(1-(2-(3,6-Diazabicyclo[3.1.1]heptan-3-yl)-7-(thiazol-2-yl)benzo[d]oxazol-4-yl)-2,2-difluoroethoxy)-2-methylpropan-2-ol]	< 100
OC(c1ccc(-c2nccs2)c2oc(N3CC4CCC(C3)N4)nc12)C(F)F (centres unmarked) [Example 128, 1-(2-(3,8-Diazabicyclo[3.2.1]octan-3-yl)-7-(thiazol-2-yl)benzo[d]oxazol-4-yl)-2,2-difluoroethan-1-ol]	< 100
CC(O)(c1ccc(-c2nccs2)c2oc(N3CC4CCC(C3)N4)nc12)C(F)F (centres unmarked) [Example 129, 2-(2-(3,8-Diazabicyclo[3.2.1]octan-3-yl)-7-(thiazol-2-yl)benzo[d]oxazol-4-yl)-1,1-difluoropropan-2-ol]	< 100
COC(c1ccc(-c2nccs2)c2oc(N3CC4CC(C3)N4)nc12)C(F)F (centres unmarked) [Example 130, 2-(3,6-Diazabicyclo[3.1.1]heptan-3-yl)-4-(2,2-difluoro-1-methoxyethyl)-7-(thiazol-2-yl)benzo[d]oxazole]	< 100
COC(c1ccc(-c2nccs2)c2oc(N3CC4CCC(C3)N4)nc12)C(F)F (centres unmarked) [Example 131, 2-(3,8-Diazabicyclo[3.2.1]octan-3-yl)-4-(2,2-difluoro-1-methoxyethyl)-7-(thiazol-2-yl)benzo[d]oxazole]	< 100
OCc1ccc(-c2nccs2)c2oc(N3CC4CCC(C3)N4)nc12 [Example 132, (2-(3,8-Diazabicyclo[3.2.1]octan-3-yl)-7-(thiazol-2-yl)benzo[d]oxazol-4-yl)methanol]	< 100
OCc1ccc(-c2nccs2)c2oc(N3CC4CC(C3)N4)nc12 [Example 133, (2-(3,6-Diazabicyclo[3.1.1]heptan-3-yl)-7-(thiazol-2-yl)benzo[d]oxazol-4-yl)methanol]	< 100

Compound	IC50 [nM]
OCc1ccc(-c2nccs2)c2oc(N3CC4CCCC(C3)N4)nc12 [Example 134, (2-(3,9-Diazabicyclo[3.3.1]nonan-3-yl)-7-(thiazol-2-yl)benzo[d]oxazol-4-yl)methanol]	< 100
OC(c1cc(-c2nccs2)c2oc(N3CC4CC(C3)N4)nc2c1)C(F)(F)F (centres unmarked) [Example 135, 1-(2-(3,6-Diazabicyclo[3.1.1]heptan-3-yl)-7-(thiazol-2-yl)benzo[d]oxazol-5-yl)-2,2,2-trifluoroethan-1-ol]	< 100
OC(c1cc(-c2nccs2)c2oc(N3CC4CCCC(C3)N4)nc2c1)C(F)(F)F (centres unmarked) [Example 136, 1-(2-(3,9-Diazabicyclo[3.3.1]nonan-3-yl)-7-(thiazol-2-yl)benzo[d]oxazol-5-yl)-2,2,2-trifluoroethan-1-ol]	< 100
OC(c1cc(-c2nccs2)c2oc(N3CC4CCC(C3)N4)nc2c1)C(F)(F)F (centres unmarked) [Example 138, 1-(2-(3,8-Diazabicyclo[3.2.1]octan-3-yl)-7-(thiazol-2-yl)benzo[d]oxazol-5-yl)-2,2,2-trifluoroethan-1-ol]	< 100
OC(c1cc(-c2nccs2)c2oc(N3CC4CCC(C3)N4)nc2c1)C(F)(F)F (centres unmarked) [Example 139, 1-(2-(3,8-Diazabicyclo[3.2.1]octan-3-yl)-7-(thiazol-2-yl)benzo[d]oxazol-5-yl)-2,2,2-trifluoroethan-1-ol]	< 100
OC(c1cc(-n2cccn2)c2oc(N3CC4CCC(C3)N4)nc2c1)C(F)(F)F (centres unmarked) [Example 140, 1-(2-(3,8-Diazabicyclo[3.2.1]octan-3-yl)-7-(1H-pyrazol-1-yl)benzo[d]oxazol-5-yl)-2,2,2-trifluoroethan-1-ol]	< 100
CC(=O)OC(c1cc(-c2nccs2)c2oc(N3CC4CCC(C3)N4)nc2c1)C(F)(F)F (centres unmarked) [Example 141, 1-(2-(3,8-Diazabicyclo[3.2.1]octan-3-yl)-7-(thiazol-2-yl)benzo[d]oxazol-5-yl)-2,2,2-trifluoroethyl acetate]	< 100
COC(c1cc(-c2nccs2)c2oc(N3CC4CCC(C3)N4)nc2c1)C(F)(F)F (centres unmarked) [Example 142, 2-(3,8-Diazabicyclo[3.2.1]octan-3-yl)-7-(thiazol-2-yl)-5-(2,2,2-trifluoro-1-methoxyethyl)benzo[d]oxazole]	< 100
COC(c1cc(-c2nccs2)c2oc(N3CC4CCC(C3)N4)nc2c1)C(F)(F)F (centres unmarked) [Example 143, 2-(3,8-Diazabicyclo[3.2.1]octan-3-yl)-7-(thiazol-2-yl)-5-(2,2,2-trifluoro-1-methoxyethyl)benzo[d]oxazole]	< 100
COC(c1cc(-c2nccs2)c2oc(N3CC4CC(C3)N4)nc2c1)C(F)(F)F (centres unmarked) [Example 144, 2-(3,6-Diazabicyclo[3.1.1]heptan-3-yl)-7-(thiazol-2-yl)-5-(2,2,2-trifluoro-1-methoxyethyl)benzo[d]oxazole]	< 100
COC(c1cc(-c2nccs2)c2oc(N3CC4CCCC(C3)N4)nc2c1)C(F)(F)F (centres unmarked) [Example 145, 2-(3,9-Diazabicyclo[3.3.1]nonan-3-yl)-7-(thiazol-2-yl)-5-(2,2,2-trifluoro-1-methoxyethyl)benzo[d]oxazole]	< 100
FC(F)(F)COC(c1cc(-c2nccs2)c2oc(N3CC4CCC(C3)N4)nc2c1)C(F)(F)F (centres unmarked) [Example 146, 2-(3,8-Diazabicyclo[3.2.1]octan-3-yl)-7-(thiazol-2-yl)-5-(2,2,2-trifluoro-1-(2,2,2-trifluoroethoxy)ethyl)benzo[d]oxazole]	< 100
COCCOC(c1cc(-c2nccs2)c2oc(N3CC4CCC(C3)N4)nc2c1)C(F)(F)F (centres unmarked) [Example 147, 2-(3,8-Diazabicyclo[3.2.1]octan-3-yl)-7-(thiazol-2-yl)-5-(2,2,2-trifluoro-1-(2-methoxyethoxy)ethyl)benzo[d]oxazole]	< 100
CCOC(c1cc(-c2nccs2)c2oc(N3CC4CCC(C3)N4)nc2c1)C(F)(F)F (centres unmarked) [Example 148, 2-(3,8-Diazabicyclo[3.2.1]octan-3-yl)-5-(1-ethoxy-2,2,2-trifluoroethyl)-7-(thiazol-2-yl)benzo[d]oxazole]	< 100
OCCOC(c1cc(-c2nccs2)c2oc(N3CC4CCC(C3)N4)nc2c1)C(F)(F)F (centres unmarked) [Example 149, 2-(1-(2-(3,8-Diazabicyclo[3.2.1]octan-3-yl)-7-(thiazol-2-yl)benzo[d]oxazol-5-yl)-2,2,2-trifluoroethoxy)ethan-1-ol]	< 100
CCOC(c1cc(-c2nccs2)c2oc(N3CC4CC(C3)N4)nc2c1)C(F)(F)F (centres unmarked) [Example 150, 2-(3,6-Diazabicyclo[3.1.1]heptan-3-yl)-5-(1-ethoxy-2,2,2-trifluoroethyl)-7-(thiazol-2-yl)benzo[d]oxazole]	< 100
FC(F)(F)COC(c1cc(-c2nccs2)c2oc(N3CC4CC(C3)N4)nc2c1)C(F)(F)F (centres unmarked) [Example 151, 2-(3,6-Diazabicyclo[3.1.1]heptan-3-yl)-7-(thiazol-2-yl)-5-(2,2,2-trifluoro-1-(2,2,2-trifluoroethoxy)ethyl)benzo[d]oxazole]	< 100

Reference: US10669283B2, “Compound and pharmacologically acceptable salt thereof” (MEIJI SEIKA PHARMA CO., LTD., priority 2016, dated 2020)
